Test results as given in publication PMC3602187, “From Design to Screening: A New Antimicrobial Peptide Discovery Pipeline” (PLoS ONE, 2013).
Converted amounts (≈) assume the structure as drawn. Where a SMILES comes first, the peptide text is derived from it.

Key:
Listeria innocua 33090 [1] = test: MIC determination / agar spot assay of synthetic peptides; format: cell-based
Description: Synthetic samples of wild-type Pln-423, two variants Pln-S23E and Pln-H28R/H34E from this study (Pln-4 and Pln-7 on Fig. 2), and another high-activity variant Pln-S27D/K36N (discovered during a pilot study, data not shown) were tested on agar plates at varying concentrations.
MICs were determined as previously described, [35]. Synthetic peptides were obtained from Peptide 2.0, Inc. (Chantilly, VA) and dissolved in 0.1% acetic acid/water solution at the final concentration of 2.5 mg/ml. Listeria innocua 33090 was grown in TSB until the turbidity of the culture match that of McFarland standard 0.5 (∼OD600 = 0.11) and diluted to final concentration of 5×10^5 cfu/ml in 20 ml TSB soft agar (1.2%) per plate. Two-fold serial dilutions (starting at 128 µg/ml) for each peptide was carried out in ultra-pure deionized water and 5 µl aliquots of each dilution were spotted on TSB plates. After the plates were incubated for 1 h at room temperature, they were placed at 37°C for overnight incubation. This experiment was performed in triplicate and the MIC was calculated as the lowest peptide concentration that formed a visible growth inhibition zone.

Listeria innocua 33090 [2] = test: colony overlay assay of peptide-secreting E. coli clones (library screening and re-test); format: cell-based; design: key: higher activity group (H); equal activity group (E); lower activity group (L); conditions: library screening; selected colonies pooled by zone size; peptides identified by 454 sequencing, full-length sequences with minimum 20 reads
How it was run: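 Pln-423 mutant library expressed periplasmically in leaky E. coli JE5505 (pFLAG-CTS); colonies grown 24 h at 37°C, then overlaid with TSB soft agar containing 1 mM IPTG and L. innocua ATCC 33090 (OD600 = 0.03) and incubated overnight at 30°C. Activity scored by inhibition-zone size versus wild-type Pln-423; hits re-tested after 4 h regrowth.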

SMILES: CC(C)C[C@H](NC(=O)[C@H](Cc1c[nH]cn1)NC(=O)[C@H](CO)NC(=O)[C@@H](NC(=O)[C@H](CO)NC(=O)[C@H](CS)NC(=O)[C@H](CCC(=O)O)NC(=O)[C@H](Cc1ccccc1)NC(=O)[C@H](C)NC(=O)[C@H](CCC(N)=O)NC(=O)CNC(=O)[C@H](Cc1c[nH]c2ccccc12)NC(=O)[C@H](CC(N)=O)NC(=O)[C@@H](NC(=O)[C@H](CO)NC(=O)[C@H](CS)NC(=O)[C@H](CO)NC(=O)[C@H](Cc1c[nH]cn1)NC(=O)[C@H](CCCCN)NC(=O)CNC(=O)[C@H](CS)NC(=O)[C@@H](NC(=O)[C@@H](NC(=O)CNC(=O)[C@H](CC(N)=O)NC(=O)CNC(=O)[C@H](Cc1ccc(O)cc1)NC(=O)[C@H](Cc1ccc(O)cc1)NC(=O)[C@@H](N)CCCCN)C(C)C)[C@@H](C)O)C(C)C)C(C)C)C(=O)N[C@@H](C)C(=O)N[C@@H](CC(N)=O)C(=O)N[C@@H](Cc1ccccc1)C(=O)NCC(=O)N[C@@H](Cc1c[nH]cn1)C(=O)NCC(=O)N[C@@H](CCCCN)C(=O)N[C@@H](CS)C(=O)O [PLN-S23E] (H-KYYGNGVTCGKHSCSVNWGQAFECSVSHLANFGHGKC-OH; N-terminus and C-terminus assumed)
- MIC (Listeria innocua 33090 [1]; synthetic peptide, 5 µl of two-fold serial dilutions spotted on TSB soft agar (1.2%) with 5×10^5 cfu/ml, 1 h room temperature, then 18 h at 37°C, lowest concentration with visible inhibition zone, triplicate): 1 µM (≈ 3.98 µg/mL)
- MIC fold higher compared to Pln-WT (Listeria innocua 33090 [1]; synthetic peptides): 13 fold
- activity group by size of inhibition zone compared to wild-type Pln-423 (Listeria innocua 33090 [2]): H and L
